Laboratory results published in PMC9145865, “Effects of Rare Phytocannabinoids on the Endocannabinoid System of Human Keratinocytes” (International Journal of Molecular Sciences, 2022).
Like-named read-outs stand apart in the source and are kept apart here.

Legend:
GPR55 = test: qRT-PCR gene expression of GPR55; type: cell-based, human; settings: HaCaT cells, half-IC50 dose, 24 h, vs. control
Method: The HaCaT cells were seeded into 6-well plates at a density of 4 × 10^4 per well, incubated overnight and then treated with the selected pCBs (CBG (6.0 µM), CBC (4.0 µM), THCV (9.0 µM) and CBGA (13.0 µM)) for 24 h. The cell pellets were collected and RT-PCR reactions were performed using the RevertAid H Minus First Strand cDNA Synthesis Kit. The relative abundance was assessed via RT quantitative PCR (RT-qPCR) using the SensiFAST SYBR Lo-ROX Kit in an Applied Biosystems 7500 Fast Real-Time PCR System (Life Technologies). To provide the precise quantification of the initial target in each PCR reaction, the amplification plot was examined, as well as the point of early log phase of the product accumulation, which was defined by assigning a fluorescence threshold above the background that was defined as the threshold cycle number or “Ct. Differences” in threshold cycle number that was used to quantify the relative amount of the PCR targets that were contained within each tube. After PCR, a dissociation curve (melting curve) was constructed in the range of 60 °C to 95 °C [62] to evaluate the specificity of the amplification products. The relative expression of the different amplicons was calculated using the delta–delta Ct (ΔΔCt) method and then converted into the relative expression ratio (2^−ΔΔCt) for statistical analysis. All data were normalized to the endogenous reference genes β-actin and glyceraldehyde-3-phosphate dehydrogenase. The specific primers (Table 5) that were used were designed and ordered from Integrated DNA Technologies (IDT; Coralville, IA, USA) with the following sequences: […]

CB2 [1] = test: Western blot protein expression of CB2; type: cell-based, human; settings: HaCaT cells, half-IC50 dose, 24 h, vs. control
Method: (§1) The HaCaT cells were seeded into 6-well plates at a density of 4 × 10^4 per well, incubated overnight and then treated with the selected pCBs (6.0 µM of CBG, 4.0 µM of CBC, 9.0 µM of THCV and 13.0 µM of CBGA) for 24 h. The cell pellets were collected and then lysed in an ice-cold lysis buffer (10 mM of EDTA, 50 mM of pH 7.4 Tris–HCl, 150 mM of sodium chloride, 1% Triton-X-100, 2 mM of phenylmethylsulfonyl fluoride, 2 mM of sodium orthovanadate, […] of leupeptin and […] of aprotinin). The amount of protein was determined using the Bio-Rad Protein assay (Bio-Rad Laboratories, Hemel Hempstead, UK). An equal amount of protein (60 µg) was loaded onto 10% sodium dodecyl sulfate–polyacrylamide gels and blotted onto polyvinylidene fluoride sheets (Amersham Biosciences, Piscataway, NJ, USA). The membranes were blocked with dried 5% non-fat milk for 1 h and then incubated with suitable primary antibodies. Detection was performed using Azure Biosystems c400 (Dublin, CA, USA). The membranes were stripped using the Restore Western Blot Stripping Buffer from Thermo Fisher Scientific (Waltham, MA, USA) for 30 min under agitation at room temperature, according to the manufacturer’s instructions. The primary antibodies (Table 6) that were used were obtained from the following sources: […]

TRPV1 [2] = test: Western blot protein expression of TRPV1; type: cell-based, human; settings: HaCaT cells, half-IC50 dose, 24 h, vs. control
Method: as §1

PPARδ = test: Western blot protein expression of PPARδ; type: cell-based, human; settings: HaCaT cells, half-IC50 dose, 24 h, vs. control
Method: as §1

NAPE-PLD = test: Western blot protein expression of NAPE-PLD; type: cell-based, human; settings: HaCaT cells, half-IC50 dose, 24 h, vs. control
Method: as §1

TRPV1 [3] = test: TRPV1 calcium assay (capsaicin-triggered intracellular Ca2+ release); type: cell-based, human; settings: HaCaT cells, half-IC50 amount, 24 h; capsaicin 1 µM; vs. control
Method: The effects of the pCBs on intracellular Ca^2+ release that was induced by TRPV1 activation was determined using the selective intracellular fluorescent probe Fluo-3 AM (Molecular probes, Eugene, OR, USA). The HaCaT cells (1 × 10^6 cells) were loaded for 15 min at 25 °C with 4 µM of Fluo-3 AM, which contained 0.02% Pluronic F-127 (Molecular probes) in an OPTIMEM medium, and then they were washed in the Tyrode’s buffer (145 mM of NaCl, 2.5 mM of KCl, 1.5 mM of CaCl2, 1.2 mM of MgCl2, 10 mM of D-glucose and 10 mM of HEPES; pH 7.4), resuspended in 2 mL of the Tyrode’s buffer and transferred into the quartz cuvette of the LS50B spectrofluorometer (Perkin Elmer, Waltham, MA, USA). Fluorescence was measured at 25 °C (excitation at λ = 488 nm; emission at λ = 516 nm) from the HaCaT cells, which had been pre-incubated with each pCB (6.0 µM of CBG, 4.0 of µM CBC, 9.0 µM of THCV and 13.0 µM of CBGA) and then stimulated with the selective TRPV1 agonist capsaicin (1 µM), as reported in [64]. The TRPV1-mediated intracellular Ca^2+ elevation was expressed as fluorescence intensity (arbitrary units, AU) per 10^6 cells.

MAGL = MAGL activity assay in membranes of treated cells; type: cell-based, human; settings: HaCaT cells, half-IC50 amount, 24 h, vs. control
Method: MAGL Assay: The HaCaT cells were seeded into 6-well plates at a density of 4 × 10^4 per well, incubated overnight and then treated with the selected pCBs (6.0 µM of CBG, 4.0 µM of CBC, 9.0 µM of THCV and 13.0 µM of CBGA) for 24 h. The cell pellets were collected and MAGL activity was determined using membranes that were isolated from these cells using the synthetic substrate arachidonoyl-1-thio-glycerol (200 μM) in 10 mM of Tris and 1 mM of EDTA pH 7.2 at 4 °C for 15 min [68]. The MAGL inhibitor JZL184 (4 μM), which was purchased from Sigma-Aldrich (St. Louis, MO, USA), was used to fully erase the enzyme activity as a control.

CB2 [4] = settings: cited from earlier work
HaCaT cells = test: Apoptosis, DNA fragmentation ELISA; type: cell-based, human; settings: 24 h
Method: The HaCaT cells were seeded into 96-well plates at a density of 1 × 10^4 per well, incubated overnight and then treated with the selected pCBs at different concentrations (0.5 μM, 1.0 μM, 2.5 μM, 5.0 μM, 10 μM and 25 μM) for 24 h. After treatment, apoptotic cell death was quantified for specific compounds using ELISA assays, which were based on the evaluation of DNA fragmentation through an immunoassay for histone-associated DNA fragments in the cell cytoplasm. The specific determination of mono- and oligonucleosomes in the cytoplasmic fraction of cell lysates was performed by measuring the absorbance values at 405 nm, as reported in [60].

SMILES	Gene Expression GPR55 (GPR55)	gene expression of GPR55 (in words) (GPR55)	CB2 protein expression (in words) (CB2 [1])	Protein Expression CB2 (CB2 [1])	Protein Expression TRPV1 (TRPV1 [2])	PPARδ protein expression (in words) (PPARδ)	Protein Expression PPARδ (PPARδ)	NAPE-PLD protein expression (in words) (NAPE-PLD)	TRPV1 channel stimulation (intracellular Ca2+ release triggered by capsaicin) (TRPV1 [3])	activity of MAGL (MAGL)	activity at CB2 (CB2 [4]; ref [28],[50],[51])	DNA fragmentation (hallmark of apoptosis) (HaCaT cells; all doses (0.5-25 µM))	Protein Expression NAPE-PLD (NAPE-PLD)	activity at CB2 (CB2 [4]; in vivo and in vitro, ref [53])	DNA fragmentation (hallmark of apoptosis) (HaCaT cells; 10 µM)	DNA fragmentation (hallmark of apoptosis) (HaCaT cells; 25 µM)	activity at CB2 (CB2 [4]; ref [52])
CCCCCc1cc(O)c2c(c1)OC(C)(CCC=C(C)C)C=C2 (stereo not shown) [CBC, cannabichromene]	↓++++	reduced	reducing	↓+	↑++++	significantly reduced	↓++++	significantly increased	significantly increased	significantly increased	CB2 agonist						
CCCc1cc(O)c2c(c1)OC(C)(C)[C@@H]1CCC(C)=C[C@@H]21 [THCV, Δ^9-tetrahydrocannabivarin]	↑++++	significant increase	reducing	↓+++	↑++++	significantly reduced	↓++++	significantly increased	significantly increased	significantly increased		ineffective	↑++++	partial CB2 agonist			
CCCCCc1cc(O)c(C/C=C(\C)CCC=C(C)C)c(O)c1 [CBG, cannabigerol]			reducing	↓+	↑++++	significantly reduced	↓+++	significantly increased	significantly increased	significantly increased			↑++++		induced the same effect	significant increase	partial agonists
CCCCCc1cc(O)c(C/C=C(\C)CCC=C(C)C)c(O)c1C(=O)O [CBGA, cannabigerolic acid]	GPR55 ↑+++	significant increase	reducing	↓++++	↑++++	significantly reduced	↓++++	significantly increased	significantly increased	significantly increased			NAPE-PLD ↑++++ FAAH ↑++++ DAGLα ↑++++ MAGL ↑++++			significant increase	partial agonists
